Experimental data: PMC7600679, “Benzoxazole-Based Metal Complexes to Reverse Multidrug Resistance in Bacteria” (Antibiotics, 2020)
Where two headings read alike, the source gives them in different places.

Tests used:
E. coli AG100 A [1] = assay: Minimum inhibitory concentration (broth microdilution, CLSI); type: cell-based, Escherichia coli; details: E. coli AG100 A (AcrAB-TolC deleted); 18 h, visual inspection
Description: Wild-type E. coli K-12 AG100 strain (argE3 thi-1 rpsL xyl mtl Δ(gal-uvrB) supE44) expressing the AcrAB TolC EP at its basal level and its AcrAB-TolC deleted mutant E. coli K-12 AG100 A strain. The strains were donated by Prof. Dr. Hiroshi Nikaido (Department of Molecular and Cell Biology and Chemistry, University of California, Berkeley, CA, USA).
(§1) The minimum inhibitory concentrations (MICs) of compounds were determined in 96-well plates based on the Clinical and Laboratory Standard Institute guidelines (CLSI guidelines). The compounds were diluted in 100 μL of MHB. Then, 10^−4 dilution of an overnight bacterial culture in 100 μL of medium were added to each well, with the exception of the medium control wells.

S. aureus 272123 (MRSA) [2] = assay: Real-time ethidium bromide accumulation (efflux pump inhibition); type: cell-based, Staphylococcus aureus; details: compounds at ¼ MIC (3 at 12.5 µM), VER at 25 µM, EB 1 μg/mL, minute 30
Description: (§2) Since multidrug resistance EPs are very important factors contributing to multidrug resistance (MDR) in both Gram-positive and Gram-negative bacteria, the inhibition of these pumps could reverse the resistant phenotype and restore the activity of antibiotics. The effect of compounds on ethidium bromide (EB) accumulation was determined by the automated EB method. This assay was used to determine how much of the fluorescent dye and pump substrate EB was accumulated by the bacterial cells in the presence of the tested compounds. The real-time accumulation of EB was monitored for 30 min in both S. aureus and E. coli strains.
(§3) The accumulation of the efflux pump substrate EB was monitored by the automated EB method using a LightCycler real-time thermocycler (LightCycler 1.5, Roche, Indianapolis, IN, USA). An aliquot of an overnight culture of the S. aureus strains in TSB medium was inoculated into fresh TSB medium, and it was incubated until it reached an optical density (OD) of 0.6 at 600 nm. In the case of E. coli strains, the medium applied in the assay was LB broth; the preparation of the inoculum was similar to the one of S. aureus. The cells were washed with phosphate buffered saline (PBS; pH 7.4) and centrifuged at 13,000 × g for 3 min, the pellets were re-suspended in PBS (pH 7.4), and the OD was calibrated to 0.6 at 600 nm. The compounds were measured at ¼ MIC concentration (in double-concentrated form) to the EB solution in PBS. The final concentration of EB was determined according to the MIC and the fluorescent signal produced by this amount of EB. In the case of all strains, the concentration of EB was 1 μg/mL. Then, 10 μL of the EB solution plus the compound were pipetted into standard glass capillary tubes of 20 µL maximum volume (Roche, Indianapolis, USA), and 10 μL of bacterial culture (OD of 0.6 at 600 nm) were transferred to the capillaries. The capillaries containing the samples were placed into the carousel, and the fluorescence was monitored at the FL-2 channel in every minute on a real-time basis.
(§4) Based on the data obtained, the relative fluorescence index (RFI) of the last time point (minute 30) was determined as follows:RFI = (RFtreated − RFuntreated)/RFuntreated(1) where RFtreated is the relative fluorescence (RF) at the last time point of the EB retention curve in the presence of an inhibitor, and RFuntreated is the relative fluorescence at the last time point of the EB retention curve of the untreated control having the solvent control (DMSO).

S. aureus ATCC 25923 = assay: as above; type: cell-based, Staphylococcus aureus; details: compounds at ¼ MIC, EB 1 μg/mL, minute 30
Description: as §2, §3, §4

E. coli AG100 A [3] = assay: as above; type: cell-based, Escherichia coli; details: compounds at ¼ MIC, EB 1 μg/mL, minute 30
Description: as §2, §3, §4

[4] = tested on: MRC-5 human embryonal lung fibroblast cell line; assay: Cytotoxicity assay (MTT); type: cell-based; details: 24 h
Description: The MRC-5 human embryonic lung fibroblast cell line (ATCC CCL-171; provider: LGC Promochem, Teddington, UK) was used in the experiments. The cells were cultivated in Eagle’s Minimal Essential Medium (EMEM; Sigma–Aldrich, St. Louis, MO, USA), supplemented with 1% non-essential amino acid mixture, 10% heat-inactivated fetal bovine serum, 2 mM L-glutamine, 1 mM Na-pyruvate, nystatin, and a penicillin–streptomycin mixture in concentrations of 100 U/L and 10 mg/L, respectively. The supplementary components were obtained from Sigma–Aldrich, St. Louis, MO, USA. The cell culture was kept in a humidified atmosphere (5% CO2, 95% air) at 37 °C.
The activity of increasing concentrations of the compounds on cell growth was determined in 96-well flat-bottomed microtiter plates by two-fold serial dilutions of the benzoxazole derivatives. The adherent human embryonic lung fibroblast cells (10^4/well) was seeded in EMEM medium in 96-well microtiter plates for 4 h prior to the assay. The serial dilutions of the compounds were made in a separate plate, and then pipetted to the plates containing the MRC-5 cell line. Culture plates were incubated at 37 °C for 24 h; at the end of the incubation period, 20 μL of MTT (3-(4,5-dimethylthiazol-2-yl)-2,5-diphenyltetrazolium bromide) solution (from a 5 mg/mL stock solution) was measured to each well. After the incubation at 37 °C for 4 h, 100 μL of sodium dodecyl sulfate (SDS) solution (10% SDS in 0.01 M HCl) was added to each well to dissolve the formazan crystals and the samples were further incubated at 37 °C overnight. Cell growth was calculated by measuring the OD at 540 nm (ref. 630 nm) with a Multiscan EX ELISA reader. The cytotoxicity was expressed as IC50 values, defined as the inhibitory dose that reduces the growth of the cells exposed to the tested compounds by 50%.

E. coli AG100 [5] = assay: Real-time ethidium bromide accumulation (efflux pump inhibition, AcrAB-TolC); type: cell-based, Escherichia coli; details: compounds at ¼ MIC, EB 1 μg/mL, minute 30
Description: as §2, §3, §4

[6] = tested on: C. violaceum 026 sensor strain with AHL producer E. cloacae 31298; assay: Quorum sensing inhibition (agar diffusion, violacein production); type: cell-based, Chromobacterium violaceum; details: disc with 10 μL of 1 mM stock; reduction of violacein zone
Description: (§5) The following bacterial strains were applied in the QS tests: C. violaceum 026 as sensor strain and E. cloacae 31298 isolated from clinical wound (used as N-acyl-homoserine lactone (AHL) producer); this strain induced pigment production by C. violaceum and is a model strain to study QS interactions.
LB* was applied for these experiments. The sensor strain C. violaceum 026 and the AHL producer strains E. cloacae 31298 were inoculated as parallel lines and incubated at room temperature for 24–48 h. The inhibition of bacterial communication was determined by the agar diffusion method. Filter paper discs (7.0 mm in diameter) were impregnated with 10 μL of stock solutions (1 mM) of the compounds in DMSO. The discs were placed between the parallel lines of the sensor and the AHL producer strains. The plates were kept at room temperature for another 24–48 h, and the interactions between the strains and compounds were determined as the reduction in the size of the zone of purple pigment (violacein) production in millimeters. PMZ was applied as a positive control.

S. aureus 272123 (MRSA) [7] = assay: Minimum inhibitory concentration (broth microdilution, CLSI); type: cell-based, Staphylococcus aureus; details: 18 h, visual inspection
Description: (§6) The compounds were further investigated against two Gram-positive strains, S. aureus ATCC 25923 (MSSA), used as the methicillin susceptible reference strain, and the methicillin- and ofloxacin-resistant S. aureus 272123 clinical isolate (MRSA), which was given by Prof. Dr. Leonard Amaral (Institute of Hygiene and Tropical Medicine, Lisbon, Portugal).
as §1

E. coli AG100 [8] = assay: as above; type: cell-based, Escherichia coli; details: E. coli AG100; 18 h, visual inspection; read-out: MIC
Description: The strains were donated by Prof. Dr. Hiroshi Nikaido (Department of Molecular and Cell Biology and Chemistry, University of California, Berkeley, CA, USA).
as §1

[9] = tested on: Staphylococcus aureus ATCC 25923; assay: as above; type: cell-based; details: S. aureus ATCC 25923; 18 h, visual inspection
Description: as §6, §1

[10] = tested on: Chromobacterium violaceum 026; assay: as above; type: cell-based; details: C. violaceum 026
Description: as §5, §1

[11] = tested on: Enterobacter cloacae 31298; assay: as above; type: cell-based; details: E. cloacae 31298
Description: as §5, §1

S. aureus MRSA 272123 = assay: Resistance modulation (MIC reduction) assay with CIP and TET; type: cell-based, Staphylococcus aureus; details: for Reduction of the MIC value of CIP: compound at a quarter of the MIC; for CIP MIC in combination with compounds: compound at ¼ MIC, value is the MIC of ciprofloxacin
Description: (§7) The resistance modulation effects of compounds with ciprofloxacin (CIP) and tetracycline (TET) antibiotics were evaluated by the MIC reduction method on the Gram-negative E. coli AG100, AG100 A, and the Gram-positive S. aureus ATCC and MRSA strains.
(§8) The chemosensitizing activity of benzoxazole-type ligands and their metal complexes was determined based on the MIC values of the antibiotics in the presence of sub-inhibitory concentrations of the compounds (¼ MIC) in both Gram-negative and Gram-positive strains. The MICs were determined in strains by the two-fold broth microdilution method in 96-well plates, using serial dilutions of TET and CIP. The first four rows contained two-fold dilutions of antibiotics, and combinations of the TET and CIP and tested compounds were transferred into the last four rows. The 10^−4 dilution of an overnight bacterial culture in 50 μL of MHB was then measured to each well, except for the medium control wells. The plates were kept at 37 °C for 18 h. MIC values of antibiotics and their combination with tested compounds were detected by visual inspection.

E. coli AG100 [12] = assay: as above; type: cell-based, Escherichia coli; details: compound at ¼ MIC; for CIP MIC in combination with compounds: value is the MIC of ciprofloxacin
Description: as §7, §8

[13] = tested on: MDR mouse T-cell lymphoma cells; set-up: method as in PMID 30396935; details: preliminary results; cited from earlier work
[14] = tested on: MRC-5 human embryonal lung fibroblast cell line; set-up: method as in earlier work; details: cited from earlier work

Compound	MIC (E. coli AG100 A [1]) [µM]	Relative fluorescence index (RFI) (S. aureus 272123 (MRSA) [2])	Relative fluorescence index (RFI) (S. aureus ATCC 25923)	Relative fluorescence index (RFI) (E. coli AG100 A [3])	Cytotoxic effect (class in words) [4]	IC50 [4] [µM]	Relative fluorescence index (RFI) (E. coli AG100 [5])	Inhibition zone (quorum sensing) [6] [mm]	MIC (S. aureus 272123 (MRSA) [7]) [µM]	MIC (E. coli AG100 [8]) [µM]	MIC [9] [µM]	MIC [10] [µM]	MIC [11] [µM]	Reduction of the MIC value of CIP (S. aureus MRSA 272123) [fold]	CIP MIC in combination with compounds (S. aureus MRSA 272123) [µM]	CIP MIC in combination with compounds (E. coli AG100 [12]) [µM]	Reduction of the MIC of CIP (E. coli AG100 [12]) [fold]	IC50 [13] [µM]	IC50 [14] [µM]
[O-]C(=Cc1nc2ccccc2o1)C(F)(F)F.[O-]C(=Cc1nc2ccccc2o1)C(F)(F)F.[Zn+2] [Compound 4]	25	−0.11	−0.03	−0.17	strong (IC50: 0–30)	17.5	−0.10	47	6.25	25	12.5	>100	>100	–	–	–	–	–	–
[Cu+2].[O-]C(=Cc1nc2ccccc2o1)C(F)(F)F.[O-]C(=Cc1nc2ccccc2o1)C(F)(F)F [Compound 7]	12.5	−0.01	0.12	0.11	weak (IC50: 61–100)	76.1	−0.06	–	3.125	>100	12.5	>100	>100	2	6.25	0.016	–	–	–
O.O.[Ni+2].[O-]C(=Cc1nc2ccccc2o1)C(F)(F)F.[O-]C(=Cc1nc2ccccc2o1)C(F)(F)F [Compound 8]	25	−0.01	−0.20	−0.15	strong (IC50: 0–30)	12.2	0.11	–	6.25	50	25	>100	>100	2	6.25	0.008	2	–	–
[Ag+].[Ag+].[O-]C(=Cc1nc2ccccc2o1)C(F)(F)F.[O-]C(=Cc1nc2ccccc2o1)C(F)(F)F [Compound 11]	50	−0.11	0.11	0.12	–	65.9	0.37	53	12.5	25	25	>100	>100	–	–	–	–	–	–
CC(CN1c2ccccc2Sc2ccccc21)N(C)C (centres unmarked) [PMZ, promethazine, reference compound]	–	–	–	–	–	–	–	16	–	–	–	–	–	–	–	–	–	–	–
N.N.[Cl][Pt][Cl] [cisplatin]	–	–	–	–	–	–	–	–	–	–	–	–	–	–	–	–	–	11.2	33.5
